This is an account of results in patent publication US9365522B2, “Pyrazole amide derivative” (AMGEN INC., priority 2015, dated 2016).

Structures are written as SMILES. A value given as a limit tells only on which side of the number the result lay.

For the experiment, the target named is T1, ligand binding domain of human ROR gamma (Homo sapiens, UniProt P51449).
T1 construct: NM_001001523; expressed in transfected cells; host or cells: HEK293T
T1 sequence (P51449 247-497 isoform P51449-2): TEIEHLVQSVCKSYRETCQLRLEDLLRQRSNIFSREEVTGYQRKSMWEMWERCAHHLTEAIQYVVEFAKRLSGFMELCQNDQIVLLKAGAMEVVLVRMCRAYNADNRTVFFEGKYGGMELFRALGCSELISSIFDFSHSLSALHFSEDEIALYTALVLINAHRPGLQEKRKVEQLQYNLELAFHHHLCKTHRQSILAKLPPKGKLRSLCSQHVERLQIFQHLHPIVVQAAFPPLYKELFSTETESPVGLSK
The experiment can be described thus: ROR gamma reporter gene assay (GAL4-RORγ LBD luciferase, Dual-Glo). The following applies: HEK293T cells transfected with pM-ROR gamma, 8 concentrations 3.5 nM to 10.5 μM, 24 h incubation; read-out: result (pIC50, inhibition of RORγ transcriptional activity) (converted). The format is cell-based. Put shortly: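 First, HEK293T cells are transfected with the GAL4–RORγ LBD construct, a 5×UAS luciferase reporter and a constitutive renilla control. Next, test compounds are added over eight concentrations (3.5 nM to 10.5 μM). After 24 h at 37 °C, Dual-Glo luminescence is measured and pIC50 fitted.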
Background: In a reporter assay the amount or activity of a reporter protein is the signal.
In the case of `Cc1cncc(Cl)c1C(=O)CN(C(=O)c1cnn([C@H]2CC[C@](C)(C(=O)O)CC2)c1C(F)(F)F)[C@H]1C[C@@H]2[C@H](C1)C2(C)C` [Example 387, trans-4-(4-((2-(3-chloro-5-methylpyridin-4-yl)-2-oxoethyl)((1R,3r,5S)-6,6-dimethylbicyclo[3.1.0]hexan-3-yl)carbamoyl)-5-{trifluoromethyl)-1H-pyrazol-1-yl)-1-methylcyclohexanecarboxylic acid], the IC50 is 69200 pM.

On to `C[C@]1(C(=O)O)CC[C@H](n2ncc(C(=O)N(CC(=O)c3c(Cl)cncc3Cl)CC3(C(F)(F)F)CC3)c2Cl)CC1` [Example 388, trans-4-(5-chloro-4-((2-(3,5-dichloropyridin-4-yl)-2-oxoethyl)-((1-(trifluoromethyl)cyclopropyl)methyl)carbamoyl)pyrazol-1-yl)-1-methylcyclohexane-1-carboxylic acid], for which the IC50 is 72400 pM.

For `CC1(C)CCC(N(CC(=O)c2c(Cl)cccc2Cl)C(=O)c2cnn([C@H]3CC[C@](C)(C(=O)O)CC3)c2Cl)CC1` [Example 389, trans-4-(5-chloro-4-((2-(2,6-dichlorophenyl)-2-oxoethyl)-(4,4-dimethylcyclohexyl)carbamoyl)pyrazol-1-yl)-1-methylcyclohexane-1-carboxylic acid], the IC50 was 29500 pM. As for `CC1(C)[C@@H]2C[C@H](N(C[C@H](O)c3ncccc3Cl)C(=O)c3cnn([C@H]4CC[C@](C)(C(=O)O)CC4)c3C(F)(F)F)C[C@@H]21` [Example 390, trans-4-(4-((2-(3-chloropyridin-2-yl)-2-hydroxyethyl)((1R,3r,5S)-6,6-dimethylbicyclo[3.1.0]hexan-3-yl)carbamoyl)-5-(trifluoromethyl)-1H-pyrazol-1-yl)-1-methylcyclohexanecarboxylic acid], the IC50 was 331000 pM. With `CC1(C)[C@@H]2C[C@H](N(C[C@@H](O)c3ncccc3Cl)C(=O)c3cnn([C@H]4CC[C@](C)(C(=O)O)CC4)c3C(F)(F)F)C[C@@H]21` [Example 391, trans-4-(4-((2-(3-chloropyridin-2-yl)-2-hydroxyethyl)((1R,3r,5S)-6,6-dimethylbicyclo[3.1.0]hexan-3-yl)carbamoyl)-5-(trifluoromethyl)-1H-pyrazol-1-yl)-1-methylcyclohexanecarboxylic acid], the IC50 was 141000 pM.

For the compound `Cc1[nH]c2cccc(Cl)c2c1CCN(C(=O)c1cnn([C@H]2CC[C@](C)(C(=O)O)CC2)c1C(F)(F)F)[C@H]1C[C@@H]2[C@H](C1)C2(C)C` [Example 392, trans-4-(4-((2-(4-chloro-2-methyl-1H-indol-3-yl)ethyl)((1R,3r,5S)-6,6-dimethylbicyclo[3.1.0]hexan-3-yl)carbamoyl)-5-(trifluoromethyl)-1H-pyrazol-1-yl)-1-methylcyclohexanecarboxylic acid], the IC50 was 28800 pM.

With `CC1(C)[C@@H]2C[C@H](N(C[C@@](C)(O)c3ccccc3Cl)C(=O)c3cnn([C@H]4CC[C@](C)(C(=O)O)CC4)c3C(F)(F)F)C[C@@H]21` [Example 393, trans-4-(4-((2-(2-chlorophenyl)-2-hydroxypropyl)((1R,3r,5S)-6,6-dimethylbicyclo[3.1.0]hexan-3-yl)carbamoyl)-5-(trifluoromethyl)-1H -pyrazol-1-yl)-1-methylcyclohexanecarboxylic acid], the IC50 was 4.57e+06 pM.

`CCC(F)(CC)CN(CC(=O)c1c(Cl)cncc1Cl)C(=O)c1cnn([C@H]2CC[C@](C)(C(=O)O)CC2)c1C(F)(F)F` [Example 394, trans-4-(4-((2-(3,5-dichloropyridin-4-yl)-2-oxoethyl)-(2-ethyl-2-fluorobutyl)carbamoyl)-5-(trifluoromethyl)pyrazol-1-yl)-1-methylcyclohexane-1-carboxylic acid]: the IC50 was 20400 pM. As to `CCC(F)(CC)CN(CC(=O)c1c(Cl)cncc1Cl)C(=O)c1cnn([C@H]2CC[C@](C)(C(=O)O)CC2)c1Cl` [Example 395, trans-4-(5-chloro-4-((2-(3,5-dichloropyridin-4-yl)-2-oxoethyl)-(2-ethyl-2-fluorobutyl)carbamoyl)pyrazol-1-yl)-1-methylcyclohexane-1-carboxylic acid], the IC50 is 91200 pM.

Consider `CC1(C)[C@@H]2C[C@H](N(C[C@H](O)c3sccc3Cl)C(=O)c3cnn([C@H]4CC[C@](C)(C(=O)O)CC4)c3C(F)(F)F)C[C@@H]21` [Example 396, trans-4-(4-((2-(3-chlorothiophen-2-yl)-2-hydroxyethyl)((1R,3r,5S)-6,6-dimethylbicyclo[3.1.0]hexan-3-yl)carbamoyl)-5-(trifluoromethyl)-1H-pyrazol-1-yl)-1-methylcyclohexanecarboxylic acid], for which the IC50 is 891000 pM. Consider `CC1(C)[C@@H]2C[C@H](N(C[C@@H](O)c3sccc3Cl)C(=O)c3cnn([C@H]4CC[C@](C)(C(=O)O)CC4)c3C(F)(F)F)C[C@@H]21` [Example 397, trans-4-(4-((2-(3-chlorothiophen-2-yl)-2-hydroxyethyl)((1R,3r,5S)-6,6-dimethylbicyclo[3.1.0]hexan-3-yl)carbamoyl)-5-(trifluoromethyl)-1H-pyrazol-1-yl)-1-methylcyclohexanecarboxylic acid], for which the IC50 was 61700 pM. For `CC1(C)[C@@H]2C[C@H](N(CC(=O)c3ncccc3Cl)C(=O)c3cnn([C@H]4CC[C@](C)(C(=O)O)CC4)c3C(F)(F)F)C[C@@H]21` [Example 398, trans-4-(4-((2-(3-chloropyridin-2-yl)-2-oxoethyl)((1R,3r,5S}-6,6-dimethylbicyclo[3.1.0]hexan-3-yl)carbamoyl)-5-(trifluoromethyl)-1H -pyrazol-1-yl)-1-methylcyclohexanecarboxylic acid], the IC50 is 676000 pM. To `CC1(C)[C@@H]2C[C@H](N(CC(O)c3c(Cl)cccc3OC(F)F)C(=O)c3cnn([C@H]4CC[C@](C)(C(=O)O)CC4)c3C(F)(F)F)C[C@@H]21` (stereo partly drawn) [Example 399, trans-4-(4-((2-(2-chloro-6-(difluoromethoxy)phenyl)-2-hydroxyethyl)((1R,3r,5S)-6,6-dimethylbicyclo[3.1.0]hexan-3-yl)carbamoyl)-5-(trifluoromethyl)-1H-pyrazol-1-yl)-1-methylcyclohexanecarboxylic acid] belongs 87100 pM; to `CC1(C)[C@@H]2C[C@H](N(CC(=O)c3c(Cl)cccc3OC(F)F)C(=O)c3cnn([C@H]4CC[C@](C)(C(=O)O)CC4)c3C(F)(F)F)C[C@@H]21` [Example 400, trans-4-(4-((2-(2-chloro-6-(difluoromethoxy)phenyl)-2-oxyethyl)((1R,3r,5S)-6,6-dimethylbicyclo[3.1.0]hexan-3-yl)carbamoyl)-5-(trifluoromethyl)-1H-pyrazol-1-yl)-1-methylcyclohexanecarboxylic acid], 28800 pM; to `CC1(C)[C@@H]2C[C@H](N(CC(O)c3ccccn3)C(=O)c3cnn([C@H]4CC[C@](C)(C(=O)O)CC4)c3C(F)(F)F)C[C@@H]21` (stereo partly shown) [Example 401], 2.82e+06 pM.

Consider `CC1(C)[C@@H]2C[C@H](N(CC(=O)c3c(Cl)cccc3Cl)C(=O)c3cnn([C@H]4CC[C@](C)(C(=O)O)CC4)c3C3(F)CC3)C[C@@H]21` [Example 404, trans-4-(4-((2-(2,6-dichlorophenyl)-2-oxoethyl)((1R,3r,5S)-6,6-dimethylbicyclo[3.1.0]hexan-3-yl)carbamoyl)-5-(1-fluorocyclopropyl)-1H-pyrazol-1-yl)-1-methylcyclohexanecarboxylic acid], for which the IC50 is 22400 pM. Regarding `CC1(C)[C@@H]2C[C@H](N(CCn3cnc4cccc(Cl)c43)C(=O)c3cnn([C@H]4CC[C@](C)(C(=O)O)CC4)c3C(F)(F)F)C[C@@H]21` [Example 405, trans-4-(4-((2-(7-chloro-1H-benzo(d)imidazol-1-yl)ethyl)((1R,3r,5S)-6,6-dimethylbicyclo[3.1.0]hexan-3-yl)carbamoyl)-5-(trifluoromethyl)-1H-pyrazol-1-yl)-1-methylcyclohexanecarboxylic acid], the IC50 is at least 1.05e+07 pM. For the compound `CC(C)(C)CN(CC(=O)c1c(Cl)cccc1OC(F)F)C(=O)c1cnn([C@H]2CC[C@](C)(C(=O)O)CC2)c1C(F)(F)F` [Example 406, trans-4-(4-((2-(2-chloro-6-(difluoromethoxy)phenyl)-2-oxoethyl)-(2,2-dimethylpropyl)carbamoyl)-5-(trifluoromethyl)pyrazol-1-yl)-1-methylcyclohexane-1-carboxylic acid], the IC50 was 50100 pM. In the case of `Cc1ncc(Cl)c(C(O)CN(C(=O)c2cnn([C@H]3CC[C@](C)(C(=O)O)CC3)c2C(F)(F)F)[C@H]2C[C@@H]3[C@H](C2)C3(C)C)n1` (stereo partly drawn) [Example 407, trans-4-(4-((2-(5-chloro-2-methylpyrimidin-4-yl)-2-hydroxyethyl)((1R,3r,5S)-6,6-dimethylbicyclo[3.1.0]hexan-3-yl)carbamoyl)-5-(trifluoromethyl)-1H-pyrazol-1-yl)-1-methylcyclohexanecarboxylic acid], the IC50 is 479000 pM.
